Data set [1] can be described thus: Oral bioavailability in rat. The data set is classed as ADME, organism-based. Conditions: in vivo.
Data set [2] is described as follows: Percentage unbound in rat plasma at 37 degC by equilibrium dialysis method. The data set is classed as ADME, cell-free.
Data set [3] is described as follows: Lipophilicity, log D at pH 7.4 by shake flask method. Conditions: buffer.
Data set [4] in a line: Intrinsic clearance in rat hepatocytes assessed per 10^6 cells.
Another data set is described as follows: in vivo. Conditions: rat.
A short description of data set [5]: Inhibition of N-terminal 6-His tagged full length dog 11betaHSD1 incubated for 25 mins by HTRF assay. On the set-up: species or system Canis lupus familiaris.
Data set [6] is described as follows: Inhibition of N-terminal 6-His tagged full length cynomolgus monkey 11betaHSD1 incubated for 25 mins by HTRF assay. More on the design: species or system Macaca fascicularis.
The nature of data set [7]: Drug metabolism in dog hepatocytes assessed as oxidative metabolism level by metabolism-ID study. The data set is classed as ADME, cell-based, Canis lupus familiaris, Hepatocyte.
Data set [8] is described as follows: Stability in bile duct cannulated rat bile assessed as parent compound remaining measured during 0 to 6 hrs post dose. Conditions: in vivo. The data set is classed as ADME.
The test system of data set [9] is Hepatocyte. In words: Drug metabolism in human hepatocytes assessed as ratio of glucuronidation to oxidative metabolism level by metabolism-ID study. The data set is classed as ADME, cell-based.
Data set [10] is described as follows: Drug metabolism in bile duct cannulated rat urine assessed as oxidative metabolism level during 0 to 6 hrs post dose by metabolism-ID study. The settings on record: in vivo. The data set is classed as ADME, tissue-based.
A short description of data set [11]: Drug metabolism in bile duct cannulated rat bile assessed as ratio of glucuronidation to oxidative metabolism level during 0 to 6 hrs post dose by metabolism-ID study. The data set is classed as ADME. The settings on record: in vivo.
The nature of data set [12]: Drug metabolism in bile duct cannulated rat bile assessed as oxidative metabolism level during 0 to 6 hrs post dose by metabolism-ID study. The data set is classed as ADME. The settings on record: in vivo.
Data set [13] is described as follows: Drug metabolism in dog hepatocytes assessed as ratio of glucuronidation to oxidative metabolism level by metabolism-ID study. The data set is classed as ADME, cell-based, Canis lupus familiaris, Hepatocyte.
The nature of data set [14]: Stability in bile duct cannulated rat urine assessed as parent compound remaining measured during 0 to 6 hrs post dose. The data set is classed as ADME, tissue-based. The settings on record: in vivo.
A short description of data set [15]: Drug metabolism in bile duct cannulated rat urine assessed as ratio of glucuronidation to oxidative metabolism level during 0 to 6 hrs post dose by metabolism-ID study. The data set is classed as ADME, tissue-based. The settings on record: in vivo.
For data set [16], the system named is Hepatocyte. In words: Drug metabolism in rat hepatocytes assessed as ratio of glucuronidation to oxidative metabolism level by metabolism-ID study. The data set is classed as ADME, cell-based.

SMILES strings stand for the structures. A value given as a limit tells only on which side of the number the result lay.

Consider `CCCSc1c(C(=O)NC2C3CC4CC(C3)CC2C4)cnn1-c1ccc(C(=O)O)cc1` (centres undefined), for which the bioavailability (usually dose-corrected exposure relative to a reference, in per cent) in data set [1] turned out to be 45%. For the same compound, the fraction unbound (commonly free concentration divided by total concentration) in data set [2] came out at 0.005. Further, the logD (usually lipophilicity at a set pH, counting ionised and neutral species) in data set [3] was found to be 1.8.

The compound `CCCSc1c(C(=O)N[C@H]2C3CC4CC2C[C@](S(C)(=O)=O)(C4)C3)cnn1-c1ccc(C(=O)O)cc1` showed a bioavailability in data set [1] of 7%. Also, the fraction unbound in data set [2] came to 0.134. Moreover, the log distribution coefficient (logD) in [3] is less than 0.5.

On to `CCCSc1c(C(=O)N(C)C2CCCCC2)cnn1-c1ccc(C(=O)O)cc1`, for which the bioavailability in data set [1] was found to be 26%. The compound also displayed a fraction unbound in data set [2] of 0.025. In addition, in data set [4], the intrinsic clearance (hepatocyte CLint) (as a rule, a measure of how fast metabolising enzymes remove a compound, apart from limits set by blood flow) was 26 µL/min/1e6 cells. The clearance (as a rule, the volume of plasma or blood freed of the substance per unit of time) in the data set “in vivo” was 8.1 mL/min/kg. Further, the logD in data set [3] was 0.6.

In data set [1], `CCc1c(C(=O)NC2C3CC4CC(C3)CC2C4)cnn1-c1ccc(C(=O)O)cc1` (centres undefined) returned a bioavailability greater than 100%. This compound had a fraction unbound in data set [2] of 0.06. In [3], the logD was determined as 0.9.

For `CC(C)c1c(C(=O)NC2C3CC4CC(C3)CC2C4)cnn1-c1ccc(C(=O)O)cc1` (centres undefined), the bioavailability in data set [1] turned out to be 53%. In data set [2], this compound displayed an unbound share (fraction unbound) of 0.036. In data set [4], this compound had an intrinsic clearance (hepatocyte CLint) of less than 2 µL/min/1e6 cells. The compound further showed a clearance in the data set “in vivo” of 2.2 mL/min/kg. In [3], the logD amounted to 1.2.

The compound `O=C(O)c1ccc(-n2ncc(C(=O)NC3C4CC5CC(C4)CC3C5)c2C2CC2)cc1` (centres undefined) yielded a bioavailability in [1] of 51%. The compound further came in with a fraction unbound in data set [2] of 0.045. In [4], this compound displayed an intrinsic metabolic clearance (hepatocyte CLint) of 15 µL/min/1e6 cells. The clearance in “in vivo” worked out at 14 mL/min/kg. In addition, the logD in data set [3] was 0.9.

`CC1(c2c(C(=O)NC3C4CC5CC(C4)CC3C5)cnn2-c2ccc(C(=O)O)cc2)CC1` (centres undefined) displayed a bioavailability in data set [1] greater than 100%. In data set [2], this compound displayed a fraction unbound of 0.033. Further, the intrinsic metabolic clearance (hepatocyte CLint) in [4] was 11 µL/min/1e6 cells. Besides, the clearance in “in vivo” is 19 mL/min/kg. Also, in data set [3], the log distribution coefficient (logD) came to 1.1.

`O=C(O)c1ccc(-n2ncc(C(=O)NC3C4CC5CC(C4)CC3C5)c2SC2CCCC2)cc1` (centres undefined) registered a bioavailability in data set [1] of 57%. The fraction unbound in [2] was found to be 0.0015. The intrinsic metabolic clearance (hepatocyte CLint) in data set [4] stood at 14 µL/min/1e6 cells. In addition, the clearance in “in vivo” was determined as 3.3 mL/min/kg. In data set [3], this compound returned a logD of 2.6.

`CCSc1c(C(=O)NC2C3CC4CC(C3)CC2C4)cnn1-c1ccc(C(=O)O)cc1` (centres undefined) registered a bioavailability in [1] of 65%. For the same compound, the fraction unbound in data set [2] was 0.0131. Moreover, in data set [4], the hepatocyte CLint was 6 µL/min/1e6 cells. Also, the clearance in “in vivo” stood at 3 mL/min/kg. Moreover, in data set [3], the logD stood at 1.5.

For the compound `Cc1c(C(=O)NC2C3CC4CC(C3)CC2C4)cnn1-c1ccc(C(=O)O)cc1` (centres undefined), in [1], the bioavailability is greater than 100%. Moreover, the fraction unbound in [2] was 0.127. In addition, in [4], the intrinsic metabolic clearance (hepatocyte CLint) was less than 3 µL/min/1e6 cells. The same compound gave a clearance in the data set “in vivo” of 8 mL/min/kg.

In data set [1], `O=C(O)c1ccc(-n2ncc(C(=O)NC3C4CC5CC(C4)CC3C5)c2SC2CCCCC2)cc1` (centres undefined) returned a bioavailability of 82%. In data set [2], this compound yielded a free fraction (fraction unbound) of 0.0013. Also, the intrinsic clearance (hepatocyte CLint) in data set [4] was 9.4 µL/min/1e6 cells. This compound displayed a clearance in the data set “in vivo” of 3.6 mL/min/kg. The compound further showed a logD in data set [3] of 3.

Consider `O=C(O)c1ccc(-n2ncc(C(=O)NC3C4CC5CC(C4)CC3C5)c2C(F)(F)F)cc1` (centres undefined), for which, in [1], the bioavailability was greater than 100%. Also, the unbound share (fraction unbound) in data set [2] is 0.045.

Consider `CCCSc1c(C(=O)N[C@H]2C3CC4CC2C[C@](OC(F)F)(C4)C3)cnn1-c1ccc(C(=O)O)cc1`, for which the bioavailability in data set [1] came to 40%. This compound also returned a free fraction (fraction unbound) in data set [2] of 0.026. In data set [4], the intrinsic clearance (hepatocyte CLint) stood at 18 µL/min/1e6 cells. Moreover, the clearance in the data set “in vivo” was determined as 9.4 mL/min/kg. Further, the pH-dependent lipophilicity (logD) in data set [3] was 1.2.

Regarding `O=C(O)c1ccc(-n2ncc(C(=O)NC3C4CC5CC(C4)CC3C5)c2C2CCC2)cc1` (centres undefined), the bioavailability in data set [1] is greater than 100%. The same compound displayed a fraction unbound in [2] of 0.012. In addition, the hepatocyte CLint in [4] is less than 3 µL/min/1e6 cells. Moreover, the clearance in the data set “in vivo” is 1.3 mL/min/kg.

Consider `CCCSc1c(C(=O)N[C@H]2C3CC4CC2C[C@](OC)(C4)C3)cnn1-c1ccc(C(=O)O)cc1`, for which the bioavailability in data set [1] was 54%. In data set [2], the free fraction (fraction unbound) turned out to be 0.285. In data set [4], this compound registered an intrinsic clearance (hepatocyte CLint) of less than 2 µL/min/1e6 cells. Further, the clearance in the data set “in vivo” came out at 13 mL/min/kg. In [3], this compound had a pH-dependent lipophilicity (logD) of less than 0.5.

`CCCSc1c(C(=O)NC2CCCCC2)cnn1[C@H]1CC[C@H](C(=O)O)CC1` gave a bioavailability in [1] of 100%. Further, the fraction unbound in data set [2] was found to be 0.093. The compound also gave a hepatocyte CLint in [4] of 7.5 µL/min/1e6 cells. The compound further returned a clearance in “in vivo” of 2.5 mL/min/kg. Also, the pH-dependent lipophilicity (logD) in data set [3] amounted to 1.

The compound `CCCSc1c(C(=O)NC2CCCCC2)cnn1-c1ccc(C(=O)O)cc1` registered a bioavailability in data set [1] of 72%. Moreover, the free fraction (fraction unbound) in data set [2] worked out at 0.04. Also, the hepatocyte CLint in data set [4] is less than 3 µL/min/1e6 cells. In the data set “in vivo”, this compound gave a clearance of 4.5 mL/min/kg. In data set [3], this compound displayed a pH-dependent lipophilicity (logD) of 0.6.

In data set [1], `CSc1c(C(=O)NC2C3CC4CC(C3)CC2C4)cnn1-c1ccc(C(=O)O)cc1` (centres undefined) returned a bioavailability of 64%. In addition, in [2], the free fraction (fraction unbound) was 0.0336. The same compound returned an intrinsic clearance (hepatocyte CLint) in data set [4] of less than 2 µL/min/1e6 cells. In “in vivo”, this compound returned a clearance of 11 mL/min/kg. For the same compound, in data set [3], the logD worked out at 1.2.

In data set [1], `CCCSc1c(C(=O)NC2CCCCC2)cnn1-c1cccc(C(=O)O)c1` registered a bioavailability greater than 100%. In addition, the fraction unbound in data set [2] is 0.02. The hepatocyte CLint in data set [4] is 17 µL/min/1e6 cells. In “in vivo”, this compound returned a clearance of 17 mL/min/kg. Besides, the logD in data set [3] worked out at 0.7.

Regarding `CCCSc1nc(N2CCC[C@@H](CC(=O)O)C2)ccc1C(=O)NC1CCCCC1` [AZD-4017], the half-inhibitory concentration (IC50) – broadly, the midpoint of a concentration-inhibition curve – in data set [5] is 3770 nM; in data set [6], 29 nM. The figures for the Drug metabolism in [7], in [10] and in data set [12] were 13%, 28% and 10%, respectively. Also, the Stability in [8] is listed as 15%; in data set [14], 4%. Besides, the Ratio worked out at 6 in the data set with Hepatocyte [9]; 7.5 in data set [11]; 4.1 in data set [13]; 2.4 in data set [15]; 2.1 in the data set with Hepatocyte [16].

Compound `CCCSc1c(C(=O)NC2CCCCC2)cnn1C` showed a bioavailability in data set [1] of 0%. The free fraction (fraction unbound) in [2] was determined as 0.132. The compound also returned a logD in data set [3] of 3.

With `CCCSc1c(C(=O)N[C@H]2C3CC4CC2C[C@](O)(C4)C3)cnn1-c1ccc(C(=O)O)cc1`, the bioavailability in [1] turned out to be 10%. In data set [2], the fraction unbound is 0.105. The same compound yielded a hepatocyte CLint in data set [4] of less than 2 µL/min/1e6 cells. In the data set “in vivo”, the clearance was 20 mL/min/kg. Also, the logD in [3] is -0.4.

`CCCSc1ncccc1C(=O)NC1CCCCC1` gave a logD in data set [3] of 3.2.

`O=C(O)c1ccc(-n2ncc(C(=O)NC3C4CC5CC(C4)CC3C5)c2C2CCCC2)cc1` (centres undefined): the bioavailability in data set [1] is greater than 100%. The same compound returned a fraction unbound in [2] of 0.004. In [3], the logD was determined as 1.7.

In [1], `CCCSc1c(C(=O)NC2CCCCC2)cnn1[C@H]1CC[C@@H](C(=O)O)CC1` returned a bioavailability of 49%. Moreover, in data set [4], the hepatocyte CLint was 58 µL/min/1e6 cells. The same compound returned a clearance in the data set “in vivo” of 43 mL/min/kg. In data set [3], this compound displayed a logD of 1.4.

In the case of `O=C(O)c1ccc(-n2cc(C(=O)NC3C4CC5CC(C4)CC3C5)cn2)cc1` (centres undefined), the unbound share (fraction unbound) in [2] stood at 0.107. The same compound registered a hepatocyte CLint in data set [4] of 6.6 µL/min/1e6 cells.

The values are drawn from ChEMBL document CHEMBL2177022, “Novel acidic 11β-hydroxysteroid dehydrogenase type 1 (11β-HSD1) inhibitor with reduced acyl glucuronide liability: the discovery of 4-[4-(2-adamantylcarbamoyl)-5-tert-butyl-pyrazol-1-yl]benzoic acid (AZD8329)” (J Med Chem, 2012).
